Columns and labels:
[1] = Autosampler stability of ready for injection samples; assay type: physicochemical, human
[2] = Freeze-thaw stability in spiked pooled human plasma; assay type: physicochemical
[3] = parameters: method as in supplement references [1-55] as printed per drug; conditions: minimum steady-state blood plasma concentration after multiple dose administration; ref supplement references [1-55] per drug; cited from earlier work
[4] = Short-term stability in spiked pooled human plasma (bench-top, 4 °C, 56 °C)
[5] = Long-term stability in spiked pooled human plasma

## CCN1CCN(Cc2ccc(Nc3ncc(F)c(-c4cc(F)c5nc(C)n(C(C)C)c5c4)n3)nc2)CC1 [Abemaciclib]
[1]; validation standard 2xLLOV
  Autosampler (24h, 4°C) Accuracy [%]: 99.5%
  Autosampler (72h, 4°C) Accuracy [%]: 95.3%
[1]; validation standard LLOV
  Autosampler (24h, 4°C) Accuracy [%]: 89.1%
  Autosampler (72h, 4°C) Accuracy [%]: 86.1%
[1]; validation standard MOV
  Autosampler (24h, 4°C) Accuracy [%]: 100.7%
  Autosampler (72h, 4°C) Accuracy [%]: 96.7%
[1]; validation standard ULOV
  Autosampler (24h, 4°C) Accuracy [%]: 102.6%
  Autosampler (72h, 4°C) Accuracy [%]: 100.1%
[2]; validation standard 2xLLOV
  Freeze-Thaw Accuracy [%]: 96.4%
[2]; validation standard LLOV
  Freeze-Thaw Accuracy [%]: 90.4%
[2]; validation standard MOV
  Freeze-Thaw Accuracy [%]: 102.7%
[2]; validation standard ULOV
  Freeze-Thaw Accuracy [%]: 105.3%
[3]
  cmin: 181 ng/mL
[4]; validation standard 2xLLOV
  Short-time stability (1h, 56°C) Accuracy [%]: 27.9%
  Short-time stability (24h, 4°C, without daylight) Accuracy [%]: 102.9%
  Short-time stability (24h, RT, with daylight) Accuracy [%]: 88.7%
  Short-time stability (24h, RT, without daylight) Accuracy [%]: 87.4%
[4]; validation standard LLOV
  Short-time stability (1h, 56°C) Accuracy [%]: 27.4%
  Short-time stability (24h, 4°C, without daylight) Accuracy [%]: 93.7%
  Short-time stability (24h, RT, with daylight) Accuracy [%]: 90.1%
  Short-time stability (24h, RT, without daylight) Accuracy [%]: 88.2%
[4]; validation standard MOV
  Short-time stability (1h, 56°C) Accuracy [%]: 34.3%
  Short-time stability (24h, 4°C, without daylight) Accuracy [%]: 104.5%
  Short-time stability (24h, RT, with daylight) Accuracy [%]: 90.3%
  Short-time stability (24h, RT, without daylight) Accuracy [%]: 91.7%
[4]; validation standard ULOV
  Short-time stability (1h, 56°C) Accuracy [%]: 34.9%
  Short-time stability (24h, 4°C, without daylight) Accuracy [%]: 94.4%
  Short-time stability (24h, RT, with daylight) Accuracy [%]: 88.4%
  Short-time stability (24h, RT, without daylight) Accuracy [%]: 87.5%
[5]; validation standard 2xLLOV
  Long-term stability, 1 month, -20°C Accuracy [%]: 95.0%
  Long-term stability, 1 month, -80°C Accuracy [%]: 90.1%
  Long-term stability, 2 month, -20°C Accuracy [%]: 109.1%
  Long-term stability, 2 month, -80°C Accuracy [%]: 111.4%
  Long-term stability, 3 month, -20°C Accuracy [%]: 98.8%
  Long-term stability, 3 month, -80°C Accuracy [%]: 103.4%
  Long-term stability, 6 weeks, 4°C, without daylight Accuracy [%]: 92.0%
[5]; validation standard LLOV
  Long-term stability, 1 month, -20°C Accuracy [%]: 103.5%
  Long-term stability, 1 month, -80°C Accuracy [%]: 88.4%
  Long-term stability, 2 month, -20°C Accuracy [%]: 107.2%
  Long-term stability, 2 month, -80°C Accuracy [%]: 112.7%
  Long-term stability, 3 month, -20°C Accuracy [%]: 95.7%
  Long-term stability, 3 month, -80°C Accuracy [%]: 101.8%
  Long-term stability, 6 weeks, 4°C, without daylight Accuracy [%]: 86.3%
[5]; validation standard MOV
  Long-term stability, 1 month, -20°C Accuracy [%]: 103.0%
  Long-term stability, 1 month, -80°C Accuracy [%]: 96.2%
  Long-term stability, 2 month, -20°C Accuracy [%]: 107.3%
  Long-term stability, 2 month, -80°C Accuracy [%]: 105.5%
  Long-term stability, 3 month, -20°C Accuracy [%]: 104.4%
  Long-term stability, 3 month, -80°C Accuracy [%]: 101.8%
  Long-term stability, 6 weeks, 4°C, without daylight Accuracy [%]: 106.3%
[5]; validation standard ULOV
  Long-term stability, 1 month, -20°C Accuracy [%]: 102.4%
  Long-term stability, 1 month, -80°C Accuracy [%]: 97.8%
  Long-term stability, 2 month, -20°C Accuracy [%]: 106.0%
  Long-term stability, 2 month, -80°C Accuracy [%]: 105.1%
  Long-term stability, 3 month, -20°C Accuracy [%]: 103.5%
  Long-term stability, 3 month, -80°C Accuracy [%]: 99.9%
  Long-term stability, 6 weeks, 4°C, without daylight Accuracy [%]: 99.1%

From PMC8699473, “An Easily Expandable Multi-Drug LC-MS Assay for the Simultaneous Quantification of 57 Oral Antitumor Drugs in Human Plasma” (Cancers, 2021)
